{
  "source": "PubChem BioAssay (NCI)",
  "note": "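Where inhibition never reached the appropriate level, the endpoint shown equals the highest concentration tested. Otherwise, values were interpolated linearly from a five-concentration, 48-hour dose response in 96-well plates. Abbreviation: GI50, concentration required for 50% inhibition of growth. TGI denotes the concentration required for complete inhibition of growth.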",
  "data": [
    {"test_system": "HCC-2998 colon", "test": "NCI tumour cell line growth inhibition, 48 h", "units": {"TGI": "µM", "GI50": "µM"}, "values": [
      {"smiles": "CCOC(=O)C1=NN(c2ccc(C)cc2)C2=CC(C)=NN(C)C(=S)N21", "TGI": "> 100"},
      {"smiles": "O=C(c1cccs1)N(C(=S)OC12CC3CC(CC(C3)C1)C2)c1ccccc1", "TGI": "> 100"},
      {"smiles": "C(=N\\NC1=NCCN1)/c1ccc(-c2cn3cc(/C=N/NC4=NCCN4)ccc3n2)cc1", "TGI": "> 100"},
      {"smiles": "CC1CC[C@@]2(OC1)OC1C[C@H]3[C@@H]4CC=C5CC(OC6OC(CO)C(OC7OC(CO)C(O)C(OC8OCC(O)C(O)C8O)C7OC7OC(CO)C(O)C(O)C7O)C(O)C6O)CCC5(C)[C@H]4CCC3(C)C1[C@@H]2C", "note": "(stereo not given in full)", "TGI": 8.63},
      {"smiles": "Nc1ccccc1S(=O)(=O)c1ccccc1", "TGI": "> 100"},
      {"smiles": "COc1cc2c(ccc3c4cc(OC)c(OC)cc4c[n+](C)c23)cc1O", "TGI": 75},
      {"smiles": "CNC(=O)OCc1c(CO)nc(SC)n1C", "TGI": "> 100"},
      {"smiles": "CN(C)CC(CC1=C(CC(CN(C)C)N(C)C)CCC1)N(C)C", "note": "(stereo not given)", "TGI": "> 100"},
      {"smiles": "CC12CC3OC(=O)C1COC14OC5(C2C1=O)C(O)(CCC1C4CC(O)C2(O)CC=CC(=O)C12C)C(=O)OC35C", "note": "(stereo not given)", "TGI": "> 100"},
      {"smiles": "COc1ccc(C(=O)/C=C/c2cccc([N+](=O)[O-])c2)c(OC)c1", "GI50": 2.27, "TGI": "> 50"},
      {"smiles": "CCOC(=O)C(NC(=O)c1ccco1)(Nc1nc2ccc(OCC)cc2s1)C(F)(F)F", "note": "(stereo not given)", "TGI": "> 100"},
      {"smiles": "O=C(O)C1C2CCC(O2)C1C(=O)Nc1cccc2cccnc12", "note": "(stereo not given)", "TGI": "> 100"},
      {"smiles": "COc1cccc2c1Cc1cc(-c3ccccc3)[n+](C)n1-2", "TGI": "> 100"},
      {"smiles": "O=C(OCN1C(=O)C2C3C=CC(C2C1=O)C1C2C(=O)N(COC(=O)C4CCCN4)C(=O)C2C31)C1CCCN1", "note": "(stereo not given)", "TGI": "> 100"},
      {"smiles": "O=C(C[n+]1ccc2ccccc2c1)c1ccc2ccc3ccccc3c2c1", "TGI": 3.37},
      {"smiles": "NCCCCc1cc(O)c2c(c1O)C(=O)c1ccccc1C2=O", "TGI": 28},
      {"smiles": "Cc1ccccc1C(=O)N/N=C/c1ccc(Sc2nccn2C)c([N+](=O)[O-])c1", "TGI": "> 100"},
      {"smiles": "CC(=O)C1=C(C)N(c2ccc(C)cc2)C2(O)C=CC(=O)C3C(=O)N(c4ccccc4)C(=O)C132", "note": "(stereo not given)", "TGI": 52.3},
      {"smiles": "COc1ccc2c(c1)[nH]c1c(/C=C/c3ccccc3)nccc12", "TGI": 29.9},
      {"smiles": "Clc1cc2c(cc1Cl)CC(NCCN1CCCC1)CC2", "note": "(stereo not given)", "TGI": 8.02},
      {"smiles": "[N-]=[N+]=CC(=O)c1ccccc1C#CCCc1ccccc1", "TGI": "> 100"},
      {"smiles": "CCN(CC(=O)O)C(=O)c1cccnc1", "TGI": "> 100"},
      {"smiles": "C[C@H](CCC(=O)O)[C@H]1CC[C@@]2(C)[C@@H]3C(=O)C[C@H]4C(C)(C)[C@@H](O)CC[C@]4(C)[C@H]3C(=O)C[C@]12C", "TGI": "> 100"}
    ]},
    {"test_system": "SF-268 CNS", "test": "NCI tumour cell line growth inhibition, 48 h", "units": {"TGI": "µM", "GI50": "µM"}, "values": [
      {"smiles": "CCOC(=O)C1=NN(c2ccc(C)cc2)C2=CC(C)=NN(C)C(=S)N21", "TGI": "> 100"},
      {"smiles": "O=C(c1cccs1)N(C(=S)OC12CC3CC(CC(C3)C1)C2)c1ccccc1", "TGI": "> 100"},
      {"smiles": "C(=N\\NC1=NCCN1)/c1ccc(-c2cn3cc(/C=N/NC4=NCCN4)ccc3n2)cc1", "TGI": "> 66.1"},
      {"smiles": "CC1CC[C@@]2(OC1)OC1C[C@H]3[C@@H]4CC=C5CC(OC6OC(CO)C(OC7OC(CO)C(O)C(OC8OCC(O)C(O)C8O)C7OC7OC(CO)C(O)C(O)C7O)C(O)C6O)CCC5(C)[C@H]4CCC3(C)C1[C@@H]2C", "note": "(stereo not given in full)", "TGI": 9.45},
      {"smiles": "Nc1ccccc1S(=O)(=O)c1ccccc1", "TGI": "> 100"},
      {"smiles": "Cc1c(N2C(=O)CS(=O)(=O)C2c2cccc(Oc3ccccc3)c2)c(=O)n(-c2ccccc2)n1C", "note": "(stereo not given)", "TGI": "> 100"},
      {"smiles": "COc1cc2c(ccc3c4cc(OC)c(OC)cc4c[n+](C)c23)cc1O", "TGI": 6.09},
      {"smiles": "CNC(=O)OCc1c(CO)nc(SC)n1C", "TGI": "> 100"},
      {"smiles": "CN(C)CC(CC1=C(CC(CN(C)C)N(C)C)CCC1)N(C)C", "note": "(stereo not given)", "TGI": "> 100"},
      {"smiles": "CCC1CN(C(=O)c2ccccc2)C(Cc2c[nH]c3ccccc23)C(=O)C1CC(=O)OC", "note": "(stereo not given)", "TGI": "> 100"},
      {"smiles": "CC12CC3OC(=O)C1COC14OC5(C2C1=O)C(O)(CCC1C4CC(O)C2(O)CC=CC(=O)C12C)C(=O)OC35C", "note": "(stereo not given)", "TGI": "> 100"},
      {"smiles": "NC(=O)c1c(NC(=O)c2ccccn2)sc2c1CCC(=O)C2", "GI50": 3.49, "TGI": "> 100"},
      {"smiles": "COc1ccc(C(=O)/C=C/c2cccc([N+](=O)[O-])c2)c(OC)c1", "GI50": 1.62, "TGI": "> 50"},
      {"smiles": "CCOC(=O)C(NC(=O)c1ccco1)(Nc1nc2ccc(OCC)cc2s1)C(F)(F)F", "note": "(stereo not given)", "TGI": "> 100"},
      {"smiles": "CCC(C)C1=C(OC(C)=O)[N+]2([O-])Oc3ccc(-c4c(OC(C)=O)c(OC(C)=O)c(-c5ccc(OC(C)=O)cc5)c(OC(C)=O)c4OC(C)=O)cc3OC2(C(C)CC)C(=O)N1OC(C)=O", "note": "(stereo not given)", "TGI": 37.6},
      {"smiles": "COc1cccc2c1Cc1cc(-c3ccccc3)[n+](C)n1-2", "TGI": "> 100"},
      {"smiles": "O=C(OCN1C(=O)C2C3C=CC(C2C1=O)C1C2C(=O)N(COC(=O)C4CCCN4)C(=O)C2C31)C1CCCN1", "note": "(stereo not given)", "TGI": "> 78.5"},
      {"smiles": "O=C(C[n+]1ccc2ccccc2c1)c1ccc2ccc3ccccc3c2c1", "TGI": 19.9},
      {"smiles": "NCCCCc1cc(O)c2c(c1O)C(=O)c1ccccc1C2=O", "TGI": 29.9},
      {"smiles": "Cc1ccccc1C(=O)N/N=C/c1ccc(Sc2nccn2C)c([N+](=O)[O-])c1", "TGI": "> 100"},
      {"smiles": "CCn1c(-c2ccc(N=NNc3ccc(-c4n[nH]c(=S)n4CC)cc3)cc2)n[nH]c1=S", "TGI": 17.2},
      {"smiles": "CC(=O)C1=C(C)N(c2ccc(C)cc2)C2(O)C=CC(=O)C3C(=O)N(c4ccccc4)C(=O)C132", "note": "(stereo not given)", "TGI": "> 100"},
      {"smiles": "COc1ccc2c(c1)[nH]c1c(/C=C/c3ccccc3)nccc12", "TGI": 36.7},
      {"smiles": "Clc1cc2c(cc1Cl)CC(NCCN1CCCC1)CC2", "note": "(stereo not given)", "TGI": 29.7},
      {"smiles": "CCN(CC(=O)O)C(=O)c1cccnc1", "TGI": "> 100"},
      {"smiles": "NCCSC(c1ccccc1)c1ccccc1", "TGI": "> 100"},
      {"smiles": "CCCCCCCCC/C=C/C=C/C(=O)NCC(=O)NC1C(O)C(O)C(Nc2ncnc3nc[nH]c23)OC1C(O)CO", "note": "(stereo not given)", "GI50": 0.00558, "TGI": 0.671},
      {"smiles": "COc1nc(C#CC2(O)CCCCC2)nc(OC)n1", "TGI": 40.7},
      {"smiles": "C[C@H](CCC(=O)O)[C@H]1CC[C@@]2(C)[C@@H]3C(=O)C[C@H]4C(C)(C)[C@@H](O)CC[C@]4(C)[C@H]3C(=O)C[C@]12C", "TGI": "> 100"}
    ]},
    {"test_system": "HT29 colon", "test": "NCI tumour cell line growth inhibition, 48 h", "units": {"TGI": "µM"}, "values": [
      {"smiles": "CCOC(=O)C1=NN(c2ccc(C)cc2)C2=CC(C)=NN(C)C(=S)N21", "TGI": "> 100"},
      {"smiles": "O=C(c1cccs1)N(C(=S)OC12CC3CC(CC(C3)C1)C2)c1ccccc1", "TGI": "> 100"},
      {"smiles": "C(=N\\NC1=NCCN1)/c1ccc(-c2cn3cc(/C=N/NC4=NCCN4)ccc3n2)cc1", "TGI": "> 67.7"},
      {"smiles": "CC1CC[C@@]2(OC1)OC1C[C@H]3[C@@H]4CC=C5CC(OC6OC(CO)C(OC7OC(CO)C(O)C(OC8OCC(O)C(O)C8O)C7OC7OC(CO)C(O)C(O)C7O)C(O)C6O)CCC5(C)[C@H]4CCC3(C)C1[C@@H]2C", "note": "(stereo not given in full)", "TGI": 9.4},
      {"smiles": "Nc1ccccc1S(=O)(=O)c1ccccc1", "TGI": "> 100"},
      {"smiles": "Cc1c(N2C(=O)CS(=O)(=O)C2c2cccc(Oc3ccccc3)c2)c(=O)n(-c2ccccc2)n1C", "note": "(stereo not given)", "TGI": "> 100"},
      {"smiles": "COc1cc2c(ccc3c4cc(OC)c(OC)cc4c[n+](C)c23)cc1O", "TGI": "> 75"},
      {"smiles": "CNC(=O)OCc1c(CO)nc(SC)n1C", "TGI": "> 100"},
      {"smiles": "CN(C)CC(CC1=C(CC(CN(C)C)N(C)C)CCC1)N(C)C", "note": "(stereo not given)", "TGI": "> 100"},
      {"smiles": "CCC1CN(C(=O)c2ccccc2)C(Cc2c[nH]c3ccccc23)C(=O)C1CC(=O)OC", "note": "(stereo not given)", "TGI": "> 100"},
      {"smiles": "CC12CC3OC(=O)C1COC14OC5(C2C1=O)C(O)(CCC1C4CC(O)C2(O)CC=CC(=O)C12C)C(=O)OC35C", "note": "(stereo not given)", "TGI": "> 100"},
      {"smiles": "O=c1cccccc1[O-].O=c1cccccc1[O-].[O]=[U+2]=[O]", "TGI": "> 100"},
      {"smiles": "CCOC(=O)C(NC(=O)c1ccco1)(Nc1nc2ccc(OCC)cc2s1)C(F)(F)F", "note": "(stereo not given)", "TGI": "> 100"},
      {"smiles": "CCC(C)C1=C(OC(C)=O)[N+]2([O-])Oc3ccc(-c4c(OC(C)=O)c(OC(C)=O)c(-c5ccc(OC(C)=O)cc5)c(OC(C)=O)c4OC(C)=O)cc3OC2(C(C)CC)C(=O)N1OC(C)=O", "note": "(stereo not given)", "TGI": "> 50"},
      {"smiles": "O=C(O)C1C2CCC(O2)C1C(=O)Nc1cccc2cccnc12", "note": "(stereo not given)", "TGI": "> 100"},
      {"smiles": "COc1cccc2c1Cc1cc(-c3ccccc3)[n+](C)n1-2", "TGI": 32},
      {"smiles": "O=C(OCN1C(=O)C2C3C=CC(C2C1=O)C1C2C(=O)N(COC(=O)C4CCCN4)C(=O)C2C31)C1CCCN1", "note": "(stereo not given)", "TGI": "> 100"},
      {"smiles": "O=C(C[n+]1ccc2ccccc2c1)c1ccc2ccc3ccccc3c2c1", "TGI": 12.2},
      {"smiles": "NCCCCc1cc(O)c2c(c1O)C(=O)c1ccccc1C2=O", "TGI": 16.7}
    ]}
  ]
}
